According to EP1935986B1, “Luminogenic and fluorogenic compounds and methods to detect molecules or conditions” (priority 2005, dated 2006):

Experiments:
[1] = tested on: thermostable luciferase (Luc 146-1H2); assay: Residual thermostable luciferase activity after reaction with luciferin derivatives (Steady Glo); type: biochemical
Method: (§1) This stock was used to produce enzyme stock solution having of 200 µg/ml enzyme solution in 1 mg/ml BSA, 200 mM HEPES buffer, pH 8.0, 20 mM MgCl2.
(§2) Solutions were made using a 1 M DTT solution, pH adjusted to 8.0, a 20 mM Coenzyme A solution in water (both described in examples above), a 100 mM ATP solution and water to create the following solutions: Sol'A, 100 µM ATP; Sol'B, 100 µM ATP, 4 mM Coenzyme A; Sol'n C, 100 µM ATP, 400 mM DTT, and; Sol'n D, 100 µM ATP, 4 mM Coenzyme A and 400 mM DTT.
(§3) After assembly, the reactions were initiated by addition of 25 µl of the thermostable luciferase stock solution above and mixing the tube contents. A 50 µl sample was immediately removed and placed in a luminometer tube and the light read and the tube then replaced in a tube rack at room temperature. While the light reading was being taken, a 5 µl sample of the remaining reaction (which was kept at room temperature) was diluted into 495 µl of 50 mM BisTris, pH 6.5, 1 mg/ml BSA, 1 mM EDTA prechilled to 4°C and the tube mixed and placed on ice. The light produced by the samples in the luminometer tubes were re-read at 20, 40, 60, 90 and 120 minutes post enzyme addition. Additional 5 µl samples were taken and diluted as above at 60 and 120 minutes post enzyme addition. Once all these readings and samples were taken, 50 µl of the diluted samples was mixed with 50 µl of Steady Glo in luminometer tubes, the tubes incubated 10 minutes on ice then the light produced was read on a Turner TD 20/20 luminometer.

[2] = tested on: thermostable luciferase (Luc 146-1H2); assay: Thermostable luciferase reaction with luciferin derivatives: light readings; type: biochemical
Method: as §1, §2
The following reactions were prepared (Table 47) Table 47
as §3

## O=C(O)[C@H]1CSC(c2nc3ccc(OCc4ccccc4)cc3s2)=N1 [L'in-BE]
[1]; Substrate 6.25, + Co A & DTT, Time Sample Taken 0 min
  light values obtained upon addition of the diluted reaction samples into Steady Glo reagent: 1943
[1]; Substrate 6.25, + Co A & DTT, Time Sample Taken 60 min
  light values obtained upon addition of the diluted reaction samples into Steady Glo reagent: 1235
[1]; Substrate 6.25, + Co A & DTT, Time Sample Taken 120 min
  light values obtained upon addition of the diluted reaction samples into Steady Glo reagent: 1163
[1]; Substrate 6.25, + Co A, Time Sample Taken 0 min
  light values obtained upon addition of the diluted reaction samples into Steady Glo reagent: 1841
[1]; Substrate 6.25, + Co A, Time Sample Taken 60 min
  light values obtained upon addition of the diluted reaction samples into Steady Glo reagent: 518.6
[1]; Substrate 6.25, + Co A, Time Sample Taken 120 min
  light values obtained upon addition of the diluted reaction samples into Steady Glo reagent: 349.1
[1]; Substrate 6.25, + DTT, Time Sample Taken 0 min
  light values obtained upon addition of the diluted reaction samples into Steady Glo reagent: 1860
[1]; Substrate 6.25, + DTT, Time Sample Taken 60 min
  light values obtained upon addition of the diluted reaction samples into Steady Glo reagent: 1173
[1]; Substrate 6.25, + DTT, Time Sample Taken 120 min
  light values obtained upon addition of the diluted reaction samples into Steady Glo reagent: 1067
[1]; Substrate 6.25, Alone, Time Sample Taken 0 min
  light values obtained upon addition of the diluted reaction samples into Steady Glo reagent: 2057
[1]; Substrate 6.25, Alone, Time Sample Taken 60 min
  light values obtained upon addition of the diluted reaction samples into Steady Glo reagent: 406.6
[1]; Substrate 6.25, Alone, Time Sample Taken 120 min
  light values obtained upon addition of the diluted reaction samples into Steady Glo reagent: 267.7
[1]; Substrate 25, + Co A & DTT, Time Sample Taken 0 min
  light values obtained upon addition of the diluted reaction samples into Steady Glo reagent: 1925
[1]; Substrate 25, + Co A & DTT, Time Sample Taken 60 min
  light values obtained upon addition of the diluted reaction samples into Steady Glo reagent: 1102
[1]; Substrate 25, + Co A & DTT, Time Sample Taken 120 min
  light values obtained upon addition of the diluted reaction samples into Steady Glo reagent: 836.3
[1]; Substrate 25, + Co A, Time Sample Taken 0 min
  light values obtained upon addition of the diluted reaction samples into Steady Glo reagent: 1610
[1]; Substrate 25, + Co A, Time Sample Taken 60 min
  light values obtained upon addition of the diluted reaction samples into Steady Glo reagent: 277.8
[1]; Substrate 25, + Co A, Time Sample Taken 120 min
  light values obtained upon addition of the diluted reaction samples into Steady Glo reagent: 143.2
[1]; Substrate 25, + DTT, Time Sample Taken 0 min
  light values obtained upon addition of the diluted reaction samples into Steady Glo reagent: 1675
[1]; Substrate 25, + DTT, Time Sample Taken 60 min
  light values obtained upon addition of the diluted reaction samples into Steady Glo reagent: 910.2
[1]; Substrate 25, + DTT, Time Sample Taken 120 min
  light values obtained upon addition of the diluted reaction samples into Steady Glo reagent: 738.9
[1]; Substrate 25, Alone, Time Sample Taken 0 min
  light values obtained upon addition of the diluted reaction samples into Steady Glo reagent: 1309
[1]; Substrate 25, Alone, Time Sample Taken 60 min
  light values obtained upon addition of the diluted reaction samples into Steady Glo reagent: 157.1
[1]; Substrate 25, Alone, Time Sample Taken 120 min
  light values obtained upon addition of the diluted reaction samples into Steady Glo reagent: 72.57
[1]; Substrate 100, + Co A & DTT, Time Sample Taken 0 min
  light values obtained upon addition of the diluted reaction samples into Steady Glo reagent: 1780
[1]; Substrate 100, + Co A & DTT, Time Sample Taken 60 min
  light values obtained upon addition of the diluted reaction samples into Steady Glo reagent: 1016
[1]; Substrate 100, + Co A & DTT, Time Sample Taken 120 min
  light values obtained upon addition of the diluted reaction samples into Steady Glo reagent: 778.7
[1]; Substrate 100, + Co A, Time Sample Taken 0 min
  light values obtained upon addition of the diluted reaction samples into Steady Glo reagent: 1486
[1]; Substrate 100, + Co A, Time Sample Taken 60 min
  light values obtained upon addition of the diluted reaction samples into Steady Glo reagent: 242.2
[1]; Substrate 100, + Co A, Time Sample Taken 120 min
  light values obtained upon addition of the diluted reaction samples into Steady Glo reagent: 82.03
[1]; Substrate 100, + DTT, Time Sample Taken 0 min
  light values obtained upon addition of the diluted reaction samples into Steady Glo reagent: 1762
[1]; Substrate 100, + DTT, Time Sample Taken 60 min
  light values obtained upon addition of the diluted reaction samples into Steady Glo reagent: 952.1
[1]; Substrate 100, + DTT, Time Sample Taken 120 min
  light values obtained upon addition of the diluted reaction samples into Steady Glo reagent: 691
[1]; Substrate 100, Alone, Time Sample Taken 0 min
  light values obtained upon addition of the diluted reaction samples into Steady Glo reagent: 1245
[1]; Substrate 100, Alone, Time Sample Taken 60 min
  light values obtained upon addition of the diluted reaction samples into Steady Glo reagent: 156.4
[1]; Substrate 100, Alone, Time Sample Taken 120 min
  light values obtained upon addition of the diluted reaction samples into Steady Glo reagent: 61.75
[2]; substrate 6.25 (L'in-BE: 6.26), + Co A & DTT, Time 0 min
  light readings from the reaction samples: 436.9
[2]; substrate 6.25 (L'in-BE: 6.26), + Co A & DTT, Time 20 min
  light readings from the reaction samples: 80.41
[2]; substrate 6.25 (L'in-BE: 6.26), + Co A & DTT, Time 40 min
  light readings from the reaction samples: 38.47
[2]; substrate 6.25 (L'in-BE: 6.26), + Co A & DTT, Time 60 min
  light readings from the reaction samples: 22.83
[2]; substrate 6.25 (L'in-BE: 6.26), + Co A & DTT, Time 90 min
  light readings from the reaction samples: 16.08
[2]; substrate 6.25 (L'in-BE: 6.26), + Co A & DTT, Time 120 min
  light readings from the reaction samples: 12.01
[2]; substrate 6.25 (L'in-BE: 6.26), + Co A, Time 0 min
  light readings from the reaction samples: 2575
[2]; substrate 6.25 (L'in-BE: 6.26), + Co A, Time 20 min
  light readings from the reaction samples: 207.1
[2]; substrate 6.25 (L'in-BE: 6.26), + Co A, Time 40 min
  light readings from the reaction samples: 83.73
[2]; substrate 6.25 (L'in-BE: 6.26), + Co A, Time 60 min
  light readings from the reaction samples: 45.54
[2]; substrate 6.25 (L'in-BE: 6.26), + Co A, Time 90 min
  light readings from the reaction samples: 24
[2]; substrate 6.25 (L'in-BE: 6.26), + Co A, Time 120 min
  light readings from the reaction samples: 14.42
[2]; substrate 6.25 (L'in-BE: 6.26), + DTT, Time 0 min
  light readings from the reaction samples: 455.6
[2]; substrate 6.25 (L'in-BE: 6.26), + DTT, Time 20 min
  light readings from the reaction samples: 71.9
[2]; substrate 6.25 (L'in-BE: 6.26), + DTT, Time 40 min
  light readings from the reaction samples: 33.73
[2]; substrate 6.25 (L'in-BE: 6.26), + DTT, Time 60 min
  light readings from the reaction samples: 21.49
[2]; substrate 6.25 (L'in-BE: 6.26), + DTT, Time 90 min
  light readings from the reaction samples: 13.67
[2]; substrate 6.25 (L'in-BE: 6.26), + DTT, Time 120 min
  light readings from the reaction samples: 9.847
[2]; substrate 6.25 (L'in-BE: 6.26), Alone, Time 0 min
  light readings from the reaction samples: 785.5
[2]; substrate 6.25 (L'in-BE: 6.26), Alone, Time 20 min
  light readings from the reaction samples: 62.64
[2]; substrate 6.25 (L'in-BE: 6.26), Alone, Time 40 min
  light readings from the reaction samples: 22.11
[2]; substrate 6.25 (L'in-BE: 6.26), Alone, Time 60 min
  light readings from the reaction samples: 11.22
[2]; substrate 6.25 (L'in-BE: 6.26), Alone, Time 90 min
  light readings from the reaction samples: 5.189
[2]; substrate 6.25 (L'in-BE: 6.26), Alone, Time 120 min
  light readings from the reaction samples: 2.995
[2]; substrate 25, + Co A & DTT, Time 0 min
  light readings from the reaction samples: 402
[2]; substrate 25, + Co A & DTT, Time 20 min
  light readings from the reaction samples: 85.37
[2]; substrate 25, + Co A & DTT, Time 40 min
  light readings from the reaction samples: 45.87
[2]; substrate 25, + Co A & DTT, Time 60 min
  light readings from the reaction samples: 27.94
[2]; substrate 25, + Co A & DTT, Time 90 min
  light readings from the reaction samples: 18.94
[2]; substrate 25, + Co A & DTT, Time 120 min
  light readings from the reaction samples: 13.13
[2]; substrate 25, + Co A, Time 0 min
  light readings from the reaction samples: 972.4
[2]; substrate 25, + Co A, Time 20 min
  light readings from the reaction samples: 127.4
[2]; substrate 25, + Co A, Time 40 min
  light readings from the reaction samples: 58.9
[2]; substrate 25, + Co A, Time 60 min
  light readings from the reaction samples: 31.96
[2]; substrate 25, + Co A, Time 90 min
  light readings from the reaction samples: 17.54
[2]; substrate 25, + Co A, Time 120 min
  light readings from the reaction samples: 9.727
[2]; substrate 25, + DTT, Time 0 min
  light readings from the reaction samples: 448.6
[2]; substrate 25, + DTT, Time 20 min
  light readings from the reaction samples: 84.21
[2]; substrate 25, + DTT, Time 40 min
  light readings from the reaction samples: 43.77
[2]; substrate 25, + DTT, Time 60 min
  light readings from the reaction samples: 27.21
[2]; substrate 25, + DTT, Time 90 min
  light readings from the reaction samples: 18.48
[2]; substrate 25, + DTT, Time 120 min
  light readings from the reaction samples: 12.93
[2]; substrate 25, Alone, Time 0 min
  light readings from the reaction samples: 623.2
[2]; substrate 25, Alone, Time 20 min
  light readings from the reaction samples: 73.96
[2]; substrate 25, Alone, Time 40 min
  light readings from the reaction samples: 28.76
[2]; substrate 25, Alone, Time 60 min
  light readings from the reaction samples: 13.42
[2]; substrate 25, Alone, Time 90 min
  light readings from the reaction samples: 5.528
[2]; substrate 25, Alone, Time 120 min
  light readings from the reaction samples: 2.549
[2]; substrate 100, + Co A & DTT, Time 0 min
  light readings from the reaction samples: 140.4
[2]; substrate 100, + Co A & DTT, Time 20 min
  light readings from the reaction samples: 71.5
[2]; substrate 100, + Co A & DTT, Time 40 min
  light readings from the reaction samples: 45.66
[2]; substrate 100, + Co A & DTT, Time 60 min
  light readings from the reaction samples: 29.32
[2]; substrate 100, + Co A & DTT, Time 90 min
  light readings from the reaction samples: 19.92
[2]; substrate 100, + Co A & DTT, Time 120 min
  light readings from the reaction samples: 13.08
[2]; substrate 100, + Co A, Time 0 min
  light readings from the reaction samples: 191.9
[2]; substrate 100, + Co A, Time 20 min
  light readings from the reaction samples: 63.85
[2]; substrate 100, + Co A, Time 40 min
  light readings from the reaction samples: 29.28
[2]; substrate 100, + Co A, Time 60 min
  light readings from the reaction samples: 14.78
[2]; substrate 100, + Co A, Time 90 min
  light readings from the reaction samples: 6.652
[2]; substrate 100, + Co A, Time 120 min
  light readings from the reaction samples: 3.014
[2]; substrate 100, + DTT, Time 0 min
  light readings from the reaction samples: 148.7
[2]; substrate 100, + DTT, Time 20 min
  light readings from the reaction samples: 77.9
[2]; substrate 100, + DTT, Time 40 min
  light readings from the reaction samples: 48.39
[2]; substrate 100, + DTT, Time 60 min
  light readings from the reaction samples: 32.26
[2]; substrate 100, + DTT, Time 90 min
  light readings from the reaction samples: 21.71
[2]; substrate 100, + DTT, Time 120 min
  light readings from the reaction samples: 14.25
[2]; substrate 100, Alone, Time 0 min
  light readings from the reaction samples: 160
[2]; substrate 100, Alone, Time 20 min
  light readings from the reaction samples: 48.21
[2]; substrate 100, Alone, Time 40 min
  light readings from the reaction samples: 19.25
[2]; substrate 100, Alone, Time 60 min
  light readings from the reaction samples: 8.305
[2]; substrate 100, Alone, Time 90 min
  light readings from the reaction samples: 2.843
[2]; substrate 100, Alone, Time 120 min
  light readings from the reaction samples: 1.311
